These compounds were tested against Kv7.2/7.3 (Homo sapiens, UniProt O43525+O43526) (assay: Kv7.2/7.3 Activation Assay, QPatch single concentration screen). Conditions: Kv7.2/Kv7.3 co-expressing HEK cells, compound concentration 3 μM, steady-state current at end of 2 s pulse to −30 mV.
Assay type: cell-based
Parameters: host or cells: HEK cells, tetracycline-inducible expression; key: 1.2-2.9 (+); 3-3.9 (++); >4 (+++) fold increase over baseline; O represents open channel at holding potential
Method: Kv7.2/7.3 Activation Assay
The ability of compounds to potentiate K-currents in Kv7.2/7.3 containing HEK cells was assessed using planar patch-clamp on the QPatch automated screening platform.
The hKv7.2/7.3 cell line was obtained from Chantest (Cleveland, Ohio 44128) cat. #CT6147. These HEK cells will express the Kv7.2/7.3 ion channels when induced.
Cells were maintained in a media containing DMEM/F12; 50/50 (GIBCO cat. #11330), 10% Fetal Bovine Serum (FBS) (GIBCO cat. #26140), 100 units/mL Penicillin-Streptomycin (GIBCO cat. #15140), 0.005 mg/mL Blasticidin (INVIVOGEN cat. #ant-b1-1), 0.5 mg/mL Geneticin (GIBCO cat. #10131), 0.1 mg/mL Zeocin (GIBCO cat. #R25001). Cells used in the electrophysiology assay were maintained in a media without Blasticidin, Geneticin and Zeocin for 2 days and channel expression was induced by adding tetracycline (BIOLINE cat. #BIO-87030) at a final concentration of 1 mg/mL. Cells were grown in T-175 flask to ˜75% confluency. Currents were recorded 24 hours after channel induction.
Test compounds were prepared by performing serial dilutions on a Biomek NX^P (BECKMAN COULTER). Final dilutions were made in external recording solution with a final DMSO concentration of 0.1% DMSO. For single concentration screens each plate had 10 μM retigabine as a positive control and 0.1% DMSO as a negative control.
On the day of the experiment cells were washed with Hank's Balanced Salt Solution (HBBS) (GIBCO cat. #14175) and harvested with Tryple (GIBCO cat. #12604). Cells were then centrifuged at 2000 rpm for 5 minutes and resuspended in CHO-S-SFM (GIBCO cat. #12052) at ˜3×10^6 cells/mL. Cells were stirred for 30 minutes before experiments were started. External recording solution contained (in mM): NaCl (145), KCl (4), CaCl2 (2), MgCl2 (1), HEPES (10) and Glucose (10); pH was adjusted to 7.4 with NaOH and the osmolarity was adjusted to 300-305 mOsM with sucrose if necessary. Internal solution contained (in mM): KCl (125), KF (10), EGTA (5), Na2ATP (5), MgCl2 (3.2), HEPES (5); pH was adjusted to 7.2 with KOH and the osmolarity was adjusted to 298-302 mOsM with sucrose.
Potassium channel activity was measured on the QPatch HTX (Sophion Bioscience) using QPlates with 48-wells/plate. Each cell was taken as an independent experiment and only one compound was tested per well. Potassium channel activity was elicited by holding at −80 mV and stepping to −30 mV for 2 s followed by a 100 ms pulse to −120 mV.
Single Concentration Screen:
Baseline conditions were obtained by recording 5 sweeps in the external solution only, this was repeated for three applications of the external solution. The effect of test compounds on elicited current was then assessed by recording 5 sweeps in the presence of a 3 μM compound solution. The steady-state current at the end of the 2 s pulse to −30 mV was measured to determine the fold increase from baseline.
`CC(O)(CC(=O)Nc1nc2ccc(OC(F)F)cc2n1C1CCC1)c1ccccc1` (single isomer, unassigned) [Example 422, N-(1-cyclobutyl-6-(difluoromethoxy)-1H-benzo[d]imidazol-2-yl)-3-hydroxy-3-phenylbutanamide] was tested, and the “Kv7.2/7.3 Activity: increase over baseline in current” value (“Kv7.2/7.3 Activity: increase” below) was “+ (1.2-2.9 (+))”. In the case of `CC(O)(CC(=O)Nc1nc2ccc(C#N)cc2n1CC1CC1)c1ccccc1` (single isomer, unassigned) [Example 428, N-(6-cyano-1-(cyclopropylmethyl)-1H-benzo[d]imidazol-2-yl)-3-hydroxy-3-phenylbutanamide], the “Kv7.2/7.3 Activity: increase” value is reported as “++ (3-3.9 (++))”. `CC(O)(CC(=O)Nc1nc2ccc(C#N)cc2n1C1(C)CCC1)c1ccc(F)cc1F` (single isomer, unassigned) [Example 430, N-(6-cyano-1-(1-methylcyclobutyl)-1H-benzo[d]imidazol-2-yl)-3-(2,4-difluorophenyl)-3-hydroxybutanamide] was tested, and the “Kv7.2/7.3 Activity: increase” value was “++ (3-3.9 (++))”. With `CC(O)(CC(=O)Nc1nc2cc(F)cc(C#N)c2n1C1(C)CCC1)c1ccccc1` (single isomer, unassigned) [Example 441, N-(7-cyano-5-fluoro-1-(1-methylcyclobutyl)-1H-benzo[d]imidazol-2-yl)-3-hydroxy-3-phenylbutanamide] the “Kv7.2/7.3 Activity: increase” value was “++ (3-3.9 (++))”. With `COc1cccc2nc(NC(=O)CC(C)(O)c3ccccc3)n(C3CCC3)c12` (single isomer, unassigned) [Example 442, N-(1-cyclobutyl-7-methoxy-1H-benzo[d]imidazol-2-yl)-3-hydroxy-3-phenylbutanamide] the “Kv7.2/7.3 Activity: increase” value was “+ (1.2-2.9 (+))”. `CC(C)(O)c1ccc2nc(NC(=O)CC3CC(F)(F)C3(F)F)n(C3CCC3)c2c1` (single isomer, unassigned) [Example 446, N-(1-cyclobutyl-6-(2-hydroxypropan-2-yl)-1H-benzo[d]imidazol-2-yl)-2-(2,2,3,3-tetrafluorocyclobutyl)acetamide] was tested, and the “Kv7.2/7.3 Activity: increase” value was “++ (3-3.9 (++))”. For `CC(O)(CC(=O)Nc1nc2ccc(C#N)cc2n1C1CCC1)c1ccccc1F` (single isomer, unassigned) [Example 452, N-(6-cyano-1-cyclobutyl-1H-benzo[d]imidazol-2-yl)-3-(2-fluorophenyl)-3-hydroxybutanamide], the “Kv7.2/7.3 Activity: increase” value was “O”. With `CC(O)(CC(=O)Nc1nc2ccc(C#N)cc2n1C1(C)CCC1)c1ccc(F)cc1F` (single isomer, unassigned) [Example 460, N-(6-cyano-1-(1-methylcyclobutyl)-1H-benzo[d]imidazol-2-yl)-3-(2,4-difluorophenyl)-3-hydroxybutanamide] the “Kv7.2/7.3 Activity: increase” value was “++ (3-3.9 (++))”. In the case of `CC(O)(CC(=O)Nc1nc2ccc(OC(F)F)cc2n1C1(C)CCC1)c1ccccc1` (single isomer, unassigned) [Example 463, N-(6-(difluoromethoxy)-1-(1 - methylcyclobutyl)-1H-benzo[d]imidazol-2-yl)-3-hydroxy-3-phenylbutanamide], the “Kv7.2/7.3 Activity: increase” value is reported as “+ (1.2-2.9 (+))”. For `CC(O)(CC(=O)Nc1nc2cc(F)cc(C#N)c2n1C1(C)CCC1)c1ccccc1` (single isomer, unassigned) [Example 465, N-(7-cyano-5-fluoro-1-(1-methylcyclobutyl)-1H-benzo[d]imidazol-2-yl)-3-hydroxy-3-phenylbutanamide], the “Kv7.2/7.3 Activity: increase” value was “++ (3-3.9 (++))”. `CC(C)(O)c1cc(F)c2nc(NC(=O)CC3CC(F)(F)C3(F)F)n(C3CCC3)c2c1` (single isomer, unassigned) [Example 466, N-(1-cyclobutyl-4-fluoro-6-(2-hydroxypropan-2-yl)-1H-benzo[d]imidazol-2-yl)-2-(2,2,3,3-tetrafluorocyclobutyl)acetamide] was tested, and the “Kv7.2/7.3 Activity: increase” value was “++ (3-3.9 (++))”.

— US10851067B2, “Kv7 channel activators compositions and methods of use” (Knopp Biosciences LLC, priority 2018, dated 2020)
